Measured values from patent publication US5656288A, “Stable pharmaceutical compositions containing tiludronate hydrates and process for producing the pharmaceutical compositions” (Sanofi Winthrop, Inc., priority 1995, dated 1997).
Entries after “also recorded” stand apart in the source; their conditions may differ. Each block holds one molecule with its values, some of them ahead of it.

How the values were obtained:
[1] = Solubility in acetate buffer pH 4.8, 20° C.; type: physicochemical; details: for solubility (concentration in acetate buffer): 30 min
Protocol: The solubility of unstressed hemihydrate, the monohydrate form and a sample which was equilibrated at 95% RH, i.e. tetrahydrate were compared in acetate buffer. A pH value of 4.8 was chosen. Approximately 250 mg of drug was added to 1 ml of solvent and agitated with a laboratory rotator at 20° C. The sample was filtered (0.45 micron) and diluted (200 ul to 25 ml). This solution was then diluted by a factor of 5 prior to UV analysis. Samples were analyzed at time points of 0.5, 3.0, and 24 hours with the Hewlett Packard 8451A diode array spectrophotometer. Absorbance was measured at 264 nm versus a standard prepared in acetate buffer. The solubility was determined (based on anhydrous drug) for two different samples (of each form) at each time point.

[2] = Intrinsic dissolution rate in acetate buffer pH 4.8, 20° C.; type: physicochemical; details: for intrinsic dissolution rate (average slope): acetate buffer pH 4.8, 20° C., 100 RPM, triplicate
Protocol: F) Intrinsic Dissolution Rate
The intrinsic dissolution rates of hemihydrate, the monohydrate form and tetrahydrate form were determined in acetate buffer (pH=4.8) at 20° C. A disk (0.5 cm^2) was compressed under the following conditions: 225-250 mg drug, 4000 lbs pressure, and 30 seconds compaction time. The disk was dissolved in a Vander Kamp VK 6000 dissolution bath in 250 ml solvent at 100 RPM. Samples were withdrawn at 2, 4, 6, 8, 10 and 15 minutes and diluted by a factor of 2 for UV analysis. Samples were analyzed at 264 nm with the Hewlett Packard 8451A diode array spectrophotometer. Intrinsic dissolution plots were generated by plotting concentration/area vs. time and determining the slope by linear regression. Each dissolution experiment was run in triplicate.

[3] = Hysteresis / reversibility of water uptake on moving to lower relative humidity; type: physicochemical; details: for stability / reversion at low relative humidity: moved to humidity as low as 31% RH after 75-95% RH
Protocol: (§1) The samples were held for 2 weeks at each humidity at 20° C. and analyzed by TGA for moisture content. The samples were also analyzed by FTIR to determine if spectroscopic changes were observed. Samples which increased in moisture content after 2 weeks were then moved to lower relative humidity to determine if the water uptake was reversible.
Hysteresis data (samples stored at high humidity were moved from high to low humidity) for samples stressed at 75-95% RH is shown in FIG. 1b. […] If the moisture was hygroscopic in nature one would expect the moisture level to decrease as the humidity level is decreased.

[4] = Crystal form change under humidity stress (FTIR, XRPD, TGA); type: physicochemical; details: for crystal form change (FTIR, XRPD, TGA): 95% RH; for changes by TGA / FTIR at low relative humidity: 12-58% RH, 2 weeks; for crystal form change (FTIR, TGA): 75-85% RH (75% and 84% RH samples)
Protocol: (§2) Samples of disodium tiludronate hemihydrate were stressed at humidity levels of 12-95% RH using different saturated salt solutions to obtain a range of relative humidity. The salt solutions used and the corresponding relative humidity are tabulated below:
as §1
C) Fourier Transform Infrared Spectroscopy (FTIR)
FTIR spectra were obtained on the Nicolet 730 system equipped with an MCT detector. Samples were run as KBr dispersions at approximately 1% concentration.
D) X-Ray Powder Diffraction (XRPD)
XRPD data was provided by Kodak Analytical Technology Division (Rochester, N.Y.) using a Rigaku RU 300 system at […].

[5] = ambient temperature and humidity
[6] = Hygroscopicity: water content by TGA after storage at defined relative humidity; type: physicochemical
Protocol: as §2, §1
A sample of the monohydrate form was also stressed with respect to humidity. Samples were stressed at 58-95% RH at 20° C. for 2 weeks.
B) Thermal Gravimetric Analysis (TGA)
Thermal Gravimetric Analysis was performed on the Perkin Elmer TGA-7 system. Samples were weighed into a platinum pan and scanned at a rate of 5° C./min. under nitrogen purge gas.

[7] = listed as disodium tiludronate hemihydrate, hemihydrate

solubility (concentration in acetate buffer) ([1]; pH 4.8, 20° C., 0.5 hours, based on anhydrous drug, monohydrate): 175 mg/mL | intrinsic dissolution rate (average slope) ([2]; monohydrate): 0.0351 mg/(ml*cm^2 *min)
SMILES: O=P(O)(O)C(Sc1ccc(Cl)cc1)P(=O)(O)O [monohydrate, disodium 4-chlorophenylthiomethylene-bisphosphonate monohydrate]
FTIR analysis of the disk at the end of the dissolution experiment ([2]; monohydrate): did not show transformation to the tetrahydrate

solubility (concentration in acetate buffer) ([1]; pH 4.8, 20° C., 0.5 hours, based on anhydrous drug): 140 mg/mL | crystal form change (FTIR, XRPD, TGA) [4]: little evidence of the monohydrate form | intrinsic dissolution rate (average slope) [2]: 0.0359 mg/(ml*cm^2 *min)
SMILES: O=P(O)(O)C(Sc1ccc(Cl)cc1)P(=O)(O)O [tetrahydrate, disodium 4-chlorophenylthiomethylenebisphosphonate]
stability / reversion at low relative humidity [3]: stability of the tetrahydrate form at humidity levels as low as 31% RH | conversion to monohydrate or hemihydrate [5]: not convened to either the monohydrate or hemihydrate form thereof at ambient temperature and humidity

SMILES: O=P(O)(O)C(Sc1ccc(Cl)cc1)P(=O)(O)O [Tiludronate, disodium 4-chlorophenylthiomethylenebisphosphonate]
moisture content as relative humidity is increased ([6]; increasing RH): does not increase in moisture content as relative humidity is increased until a relative humidity is reached where crystalline changes occur

water content (TGA analysis) ([6]; 12-58% RH, 20° C., 2 weeks): approximately 5% | water content ([6]; 75% RH, 20° C., 2 weeks): 8.4% | water content ([6]; 84% RH, 20° C., 2 weeks): 13.7% | moisture level / total weight loss (TGA) ([6]; 95% RH, 20° C., 2 weeks): 16.4% | solubility at 0.5 h ([1]; acetate buffer, pH 4.8, aqueous buffer, pH 4.8, 20° C., 0.5 hours, based on anhydrous drug, read-out: solubility (concentration in acetate buffer)): 147 mg/mL | solubility at 24 hours relative to tetrahydrate ([1]; pH 4.8, 20° C., 24 hours): equivalent to the tetrahydrate | initial solubility relative to tetrahydrate ([1]; pH 4.8, 20° C., initial): higher than the tetrahydrate form | FTIR analysis of residual solid in solubility samples ([1]; pH 4.8, residual solid): conversion to the tetrahydrate | stability / reversion at low relative humidity [3, 7]: did not revert at 31% RH | moisture level on moving stepwise to lower relative humidity (hysteresis) ([3]; samples stressed at 75-95% RH): not reversible | changes by TGA / FTIR at low relative humidity ([4]; hemihydrate): no changes in spectra | changes by TGA / FTIR at low relative humidity [4, 7]: no changes by TGA and FTIR | intrinsic dissolution rate (average slope) ([2]; hemihydrate): 0.0332 mg/(ml*cm^2 *min)
SMILES: O=P(O)(O)C(Sc1ccc(Cl)cc1)P(=O)(O)O [hemihydrate, disodium 4-chlorophenylthiomethylenebisphosphonate hemihydrate]
crystal form change (FTIR, TGA) ([4]; hemihydrate): partial change to monohydrate and tetrahydrate | crystal form change (FTIR, TGA) [4, 7]: partial transformation to the tetrahydrate form; also recorded: mixture of forms | crystal form change (FTIR, XRPD, TGA) ([4]; hemihydrate): conversion of the hemihydrate to the tetrahydrate form; also recorded: significant change in the FTIR spectra and X-ray pattern indicative of crystalline rearrangement | crystal form change (FTIR, XRPD, TGA) [4, 7]: crystalline changes accompany the increase in moisture content; also recorded: changed to a tetrahydrate form | FTIR analysis of the disk at the end of the dissolution experiment ([2]; hemihydrate): conversion to the tetrahydrate form was occurring
